Values joined by “and” are separate entries in the source; they are usually repeats but may differ in a detail not shown here. Equal entries are not always repeated.
What was measured:
[1] = test system: lung cancer patient-derived xenograft (LU-01-0448 PDX); assay: Antitumor activity in subcutaneous lung cancer patient-derived xenograft (LU-01-0448 PDX) model; format: in vivo, mice; conditions: Embodiment 4; for mRECIST / Response @ D 33: animals per category, PD progressive disease, SD stable disease, PR partial response; for T/C(%) @ D 33 / RTV @ D 33 / Response @ D 33: day 33; for T/C(%) @ D 33 / RTV @ D 33: Compound C 100 mg/kg p.o. QD x 5 D, Palbociclib 50 mg/kg p.o. QD x 21 D; for RTV @ D 33: n=2
Procedure: Tumor volumes were measured twice weekly in two dimensions using a caliper, and the volume was expressed in mm^3 using the formula: Tumor Volume(mm^3)=0.5a×b^2 Relative tumor volume (RTV) was calculated using the following formula: RTV=Vt/Vl Synergy score=(([…]); where A is RTV value of drug A; B is RTV value of drug B; C is RTV value of vehicle control. AB is RTV value of combination treatment with A and B. Synergy scores: >1 represents synergistic, =1 represents additive, <1 represents antagonistic (referring to Gould S E et al. Translational value of mouse models in oncology drug development. Nature medicine. 2015 21, 431-439). Standard NCI procedures were used to calculate tumor parameters. Percent tumor growth inhibition (% T/C) was calculated as the mean RTV of treated tumors (T) divided by the mean RTV of control tumors (C)×100%. The percentage T/C value is an indication of antitumor effectiveness: a value of T/C<42% is considered significant antitumor activity by the NCI. A T/C value<10% is considered to indicate highly significant antitumor activity, and is the level used by the NCI to justify a clinical trial if toxicity and certain other requirements are met (termed DN-2 level activity). A body weight loss nadir (mean of group) of greater than 20%, or greater than 20% of drug deaths are considered to indicate an excessively toxic dosage. Compound C was further tested in combination with palbociclib in another patient-derived xenograft model (LU-01-0448 PDX model). LU-01-0448 PDX model was a subcutaneous lung cancer patient-derived xenograft model, which was established according to the procedures of LP-19-0029 PDX model in embodiment 2. This experiment was carried out according to Table 4 and the procedures described in embodiment 2. [table]

[2] = test system: liposarcoma patient-derived xenograft (LP-19-0029 PDX); assay: Antitumor activity in subcutaneous liposarcoma patient-derived xenograft (LP-19-0029 PDX) model; format: in vivo, Balb/c nude mice; conditions: for T/C (%) @D 21 / RTV @D 21: Embodiment 2, day 21, Compound C 80 mg/kg p.o. Q2D x 16D, Palbociclib 50 mg/kg p.o. QD x 3W; for RTV @D 21: mean ± SEM, n=5; for RTV @D 22 / T/C(%) @D 22: day 22, Compound C 40 mg/kg p.o. q.2d x 3w, Palbociclib 50 mg/kg p.o. q.d x 3w, Ribociclib 75 mg/kg p.o. q.d x 3w
Description: Animals: Balb/c nude, female, 6-8 weeks, weighing approximately 18-22 g. A total of 40 (20 plus 100%) will be needed for the study, which will be purchased from Shanghai SLAC Laboratory Animal Co., LTD. Generation of the subcutaneous liposarcoma patient-derived xenograft (LP-19-0029 PDX) Model: The LP-19-0029 PDX model was originally established from a surgically resected clinical sample (cancer type: liposarcoma; pathology diagnosis: dedifferentiated liposarcoma), and implanted in nude mice defined as passage 0 (P0). The next passage implanted from P0 tumor was defined as passage 1 (P1), and so on during continual implantation in mice. The frozen tumor fragments will be revived in NOD SCID mice, when the tumors develop to suitable size, they will be passaged to Balb/c nude mice. The P4-P7 tumors will be used for the study. Each mouse was implanted subcutaneously at the right flank with the LP-19-0029 P4 tumor slices (about 30 mm^3) for tumor development. Treatments were started when the average tumor size reached approximately 150 mm^3. The animals were assigned into groups using an Excel-based randomization software performing stratified randomization based upon their tumor volumes. Each group consisted of 5 tumor-bearing mice. [table] Tumor volumes were measured twice weekly in two dimensions using a caliper, and the volume was expressed in mm^3 using the formula: Tumor Volume(mm^3)=0.5a×b^2 where a and b are the long and short diameters of the tumor, respectively. Relative tumor volume (RTV) was calculated using the following formula: RTV=Vt/Vl where Vl and Vt are the average tumor volumes on the first day of treatment (day 1) and the average tumor volumes on a certain time point (day t). Synergy score was calculated using the following formula described in Clarke R. Issues in experimental design and endpoint analysis in the study of experimental cytotoxic agents in vivo in breast cancer and other models[J]. Breast Cancer Research & Treatment, 1997, 46(2-3):255-278, which is incorporated by reference in its entirety: Synergy score=(([…]); where A is RTV value of drug A; B is RTV value of drug B; C is RTV value of vehicle control. AB is RTV value of combination treatment with A and B. Synergy scores: >1 represents synergistic, =1 represents additive, <1 represents antagonistic (referring to Gould S E et al. Translational value of mouse models in oncology drug development. Nature medicine. 2015 21, 431-439). Standard NCI procedures were used to calculate tumor parameters. Percent tumor growth inhibition (% T/C) was calculated as the mean RTV of treated tumors (T) divided by the mean RTV of control tumors (C)×100%. The percentage T/C value is an indication of antitumor effectiveness: a value of T/C<42% is considered significant antitumor activity by the NCI. A T/C value<10% is considered to indicate highly significant antitumor activity, and is the level used by the NCI to justify a clinical trial if toxicity and certain other requirements are met (termed DN-2 level activity). A body weight loss nadir (mean of group) of greater than 20%, or greater than 20% of drug deaths are considered to indicate an excessively toxic dosage. Summary statistics, including mean and the standard error of the mean (SEM), are provided for the tumor volume of each group at each time point. Statistical analysis of difference in the tumor volume among the groups were conducted on the data obtained at the best therapeutic time point after the final dose. A one-way ANOVA was performed to compare the tumor volume and the tumor weight among groups, and when a significant F-statistics (a ratio of treatment variance to the error variance) was obtained, comparisons between groups were carried out with Games-Howell test. All data were analyzed using SPSS 17.0. p<0.05 is considered to be statistically significant. […]

SMILES	mRECIST [1]	T/C(%) @ D 33 [1]	RTV @ D 33 [1]	Response @ D 33 [1]	T/C (%) @D 21 [2]	T/C (%) @D 21 ([2]; listed as compound C)	RTV @D 21 [2]	RTV @35 ([2]; Embodiment 3, @35, Compound C 40 mg/kg, Palbociclib 50 mg/kg, Ribociclib 75 mg/kg)	RTV @D 22 ([2]; Embodiment 3)	T/C(%) @D 22 ([2]; Embodiment 3)	T/C(%) @D 22 ([2]; Embodiment 3, listed as palbociclib)	T/C(%) @D 22 ([2]; Embodiment 3, listed as ribociclib)
CCN1[C@@H](C(=O)NC23CCC(C(=O)O)(CC2)CC3)[C@H](c2cccc(Cl)c2F)[C@]2(C(=O)Nc3cc(Cl)ccc32)C12CCCCC2 [Compound C, 4-((3′R,4′S,5′R)-6″-Chloro-4′-(3-chloro-2-fluorophenyl)-1′-ethyl-2″-oxodispiro[cyclohexane-1,2′-pyrrolidine-3′,3″-indoline]-5′-carboxamido)bicyclo[2.2.2]octane-1-carboxylic acid]	2/2 SD	41.43%	4.85 ± 1.85	2/2 PD	22.28%	22%	4.83 ± 1.56	10.95 ± 1.66	5.24 ± 0.61	38.4% and 38.44%	–	–
CC(=O)c1c(C)c2cnc(Nc3ccc(N4CCNCC4)cn3)nc2n(C2CCCC2)c1=O [Palbociclib, palbociclib]	2/2 PD	35.71%	4.18 ± 0.80	2/2 PD	70%	–	15.19 ± 1.31	–	11.36 ± 0.96	83.50%	83.5%	–
CN(C)C(=O)c1cc2cnc(Nc3ccc(N4CCNCC4)cn3)nc2n1C1CCCC1 [Ribociclib, ribociclib]	–	–	–	–	–	–	–	–	9.77 ± 1.22	71.70%	–	71.7%
